Measured values: patent US9962383B2, “Compounds, compositions and methods of agelastatin alkaloids” (Massachusetts Institute of Technology, priority 2013, dated 2018)
Entries after “also recorded” stand apart in the source; their conditions may differ. Where two headings read alike, the source gives them in different places.

Columns and labels:
[1] = test system: U-937; assay: 48-hour IC50 by MTS, U-937 lymphoma cells; format: cell-based, human
Experimental: (§1) Cells were grown in media supplemented with fetal bovine serum (FBS) and antibiotics (100 μg/mL penicillin and 100 U/mL streptomycin). […] Cells were incubated at 37° C. in a 5% CO2, 95% humidity atmosphere.
(§2) In a 96-well plate, compounds were pre-added as DMSO stocks (1% final) in triplicate to achieve final concentrations of 1 nM to 10 μM on a half log scale. DMSO and cell-free wells served as the live and dead control, respectively. […] IC50 values were determined from three or more independent experiments using TableCurve (San Jose, Calif.).

[2] = test system: HeLa; assay: 48-hour IC50 by SRB, HeLa cervical carcinoma cells; format: cell-based, human
Experimental: as §1
(§3) Adherent cells (HeLa, A549, BT549, and IMR90) were added into 96-well plates (5,000 cells/well for HeLa cell line; 2,000 cells/well for A549, BT549, and IMR90 cell lines) in 100 μL media and were allowed to adhere for 2-3 hours. Compounds were solubilized in DMSO as 100× stocks, added directly to the cells (100 μL final volume), and tested over a range of concentrations (1 nM to 10 μM) in triplicate (1% DMSO final) on a half-log scale. DMSO and cell-free wells served as the live and dead control, respectively. […] Briefly, media was removed from the plate, and cells were fixed by the addition of 100 μL cold 10% trichloroacetic acid in water. After incubating at 4° C. for 1 h, the plates were washed in water and allowed to dry. Sulforhordamine B was added as a 0.057% solution in 1% acetic acid (100 μL), and the plates were incubated at room temperature for 30 min, washed in 1% acetic acid, and allowed to dry. […] IC50 values were determined from three or more independent experiments using TableCurve (San Jose, Calif.).

[3] = test system: A549; assay: 48-hour IC50 by SRB, A549 non-small cell lung carcinoma cells; format: cell-based, human
Experimental: as §1, §3

[4] = test system: BT549; assay: 48-hour IC50 by SRB, BT549 breast carcinoma cells; format: cell-based, human
Experimental: as §1, §3

[5] = test system: IMR90; assay: 48-hour IC50 by SRB, IMR90  lung fibroblasts; format: cell-based, human
Experimental: as §1, §3

[6] = test system: human cell lines (U-937, HeLa, A549, BT549, IMR90); assay: Ability to induce cell death in the panel of five human cell lines (Table 3); format: cell-based; conditions: for activity (ability to induce cell death) in words: 48-hour exposure, 1 nM to 10 μM, cell lines of Table 3; for reduction in anticancer potency relative to the compared agelastatin: (−)-2 vs (−)-1, (−)-6 vs (−)-4, D (4) and E (5) vs A (1), Table 3 data
Experimental: Six (−)-agelastatins along with eight closely related derivatives prepared in the above examples were tested (Table 3). The six (−)-agelastatin alkaloids (1-6, respectively), (−)-O-methyl-di-epi-agelastatin A (50), (−)-dehydroagelastatin A (51), (−)-di-epi-agelastatin C (52), (+)-O-methyl-pre-agelastatin A and D (39 and 53, respectively), along with bicyclic pyrroles (+)-44, (+)-45, and triazone (+)-48 were tested for their ability to induce cell death in four human cancer cell lines (U-937, lymphoma; HeLa, cervical carcinoma; A549, non-small cell lung carcinoma; and BT549, breast carcinoma) and one immortalized normal human cell line (IMR90, lung fibroblasts) after a 48-hour exposure. […] Furthermore, enhanced activities in U-937 (20×) cell relative to the other cell lines (Table 3) were observed.
Adherent cells (HeLa, A549, BT549, and IMR90) were added into 96-well plates (5,000 cells/well for HeLa cell line; 2,000 cells/well for A549, BT549, and IMR90 cell lines) in 100 μL media and were allowed to adhere for 2-3 hours. Compounds were solubilized in DMSO as 100× stocks, added directly to the cells (100 μL final volume), and tested over a range of concentrations (1 nM to 10 μM) in triplicate (1% DMSO final) on a half-log scale. DMSO and cell-free wells served as the live and dead control, respectively. After 48 h of continuous exposure, the plates were evaluated using the SRB colorimetric assay as described previously (V. Vichai, K. Kirtikara, Nature Prot., 2006, 1, 1112). Briefly, media was removed from the plate, and cells were fixed by the addition of 100 μL cold 10% trichloroacetic acid in water. After incubating at 4° C. for 1 h, the plates were washed in water and allowed to dry. Sulforhordamine B was added as a 0.057% solution in 1% acetic acid (100 μL), and the plates were incubated at room temperature for 30 min, washed in 1% acetic acid, and allowed to dry. The dye was solubilized by adding 10 mM Tris base solution (pH 10.5, 200 μL) and incubating at room temperature for 30 min Plates were read at λ=510 nm. IC50 values were determined from three or more independent experiments using TableCurve (San Jose, Calif.).
In a 96-well plate, compounds were pre-added as DMSO stocks (1% final) in triplicate to achieve final concentrations of 1 nM to 10 μM on a half log scale. DMSO and cell-free wells served as the live and dead control, respectively. Suspension cells (U-937, CEM, CA46, Daudi, HL-60, and Jurkat; 10,000 cells/well) cells were distributed in 100 μL media to the compound-containing plate. After 48 h, cell viability was assessed by adding 20 μL of a PMS/MTS solution (A. H. Cory, T. C. Owen, J. A. Barltrop, J. G. Cory, Cancer Commun., 1991, 3, 207) to each well, allowing the dye to develop at 37° C. until the live control had processed MTS, and reading the absorbance at λ=490 nm. IC50 values were determined from three or more independent experiments using TableCurve (San Jose, Calif.).

[7] = test system: CEM; assay: 48-hour IC50 by MTS, CEM acute lymphoblastic leukemia cells; format: cell-based, human
Experimental: as §1, §2

[8] = test system: Jurkat; assay: 48-hour IC50 by MTS, Jurkat acute T-cell leukemia cells; format: cell-based, human
Experimental: as §1, §2

[9] = test system: Daudi; assay: 48-hour IC50 by MTS, Daudi Burkitt's lymphoma cells; format: cell-based, human
Experimental: as §1, §2

[10] = test system: HL-60; assay: 48-hour IC50 by MTS, HL-60 acute promyelocytic leukemia cells; format: cell-based, human
Experimental: as §1, §2

[11] = test system: CA46; assay: 48-hour IC50 by MTS, CA46 Burkitt's lymphoma cells; format: cell-based, human
Experimental: as §1, §2

[12] = test system: procaspase-3 and PARP-1 cleavage; assay: Western blot analysis of procaspase-3 and PARP-1 cleavage in U-937 cells; format: cell-based, human; conditions: 24 hours
Experimental: FIG. 2. […] Western blot analysis of procaspase-3 and PARP-1 cleavage at 24 hours in U-937 cells using β-actin as loading control. Compounds were tested at indicated concentrations and STS (10 nM); C3=caspase-3; PARP=poly(ADP-ribose) polymerase 1; PC3=procaspase-3; STS=staurosporine.

[13] = test system: U-937 cells; assay: Apoptosis in U-937 cells with Annexin V-FITC and propidium iodide; format: cell-based, human; conditions: 21 hours, flow cytometry
Experimental: FIG. 3. […] Analysis of phosphatidylserine exposure and propidium iodide inclusion at 21 hours in U-937 cells. Compounds were tested at indicated concentrations and STS was used as a positive control for apoptosis. Samples were analyzed by flow cytometry for the relative timing of phosphatidylserine exposure relative to PI inclusion. FITC=fluorescein isothiocyanate; PI=propidium iodide; STS=staurosporine.
DMSO stocks of compounds were added to a 24-well plate in singlicate (0.2% DMSO final). […] Following treatment, the cell suspensions were transferred to flow cytometry tubes and pelleted (500 g, 3 min). The media was removed by aspiration, and cells were resuspended in 200 μL AnnV binding buffer (10 mM HEPES, pH 7.4, 140 mM NaCl, 2.5 mM CaCl2) with 5 μg/mL PI and 1:90 dilution of AnnV. Samples were analyzed using flow cytometry.

[14] = test system: synchronized U-937 cells; assay: Cell cycle arrest in thymidine-synchronized U-937 cells; format: cell-based, human; conditions: 16 hours, PI, flow cytometry
Experimental: Samples were fixed, treated with an RNAse, stained with PI, and analyzed by flow cytometry. Taxol, a microtubule stabilizer, was used as a positive control. Error bars represent standard deviation of the mean, n=3. * p<0.01. PI=propidium iodide.
U-937 cells were split to 50% confluency (250,000 cells/mL) and treated with 2 mM thymidine for 10 hours. The cells were then pelleted (500 g, 3 minutes) and washed with PBS before being resuspended in thymidine-free media and allowed to recover for 13 hours. The cells were then re-blocked with 2 mM thymidine for 10 hours, and then washed with PBS as before and resuspended in media (250,000 cells/mL).
DMSO stocks of compounds were added to a 24-well plate in triplicate (0.2% DMSO final), after which 1 mL of the prepared cell suspension was added. Following a 16 h incubation, the cell suspensions were transferred to 2 mL tubes and pelleted (600 g, 3 min). The media was removed by aspiration, and the cells were fixed with 0.5 mL of ice cold 70% ethanol with vortexing. The samples were fully fixed at −20° C. for 3 hours. The samples were then pelleted (1000 g, 5 min) and the supernatant was removed via aspiration. […] Prior to reading, the samples were taken up in 150 μL of 50 μg/mL propidium iodide in PBS and transferred to flow cytometry tubes. Samples were analyzed based on whole, single cells.

[15] = test system: tubulin dynamics; assay: Tubulin microscopy with HeLa cells; format: cell-based, human; conditions: 16 hours, confocal microscopy
Experimental: HeLa cells were treated with compound for 16 hours, fixed, stained, and visualized using confocal microscopy.
Round, 1.5 mm coverslips (No. 1.5) were sterilized with ultraviolet light and placed in a 12-well plate. HeLa cells (100,000 cells/well) were added and allowed to adhere for eight hours. Compounds were then added as DMSO stocks to achieve a final DMSO concentration of 1%, and the plates were returned to the incubator for 16 hours.
Following incubation, the media was removed, and the coverslips were fixed with 0.5 mL Microtubulin Stabilizing Buffer (MTSB, 80 mM PIPES, pH 6.8, 1 mM MgCl2, 5 mM EGTA, 0.5% TX-100)+0.5% glutaraldehyde for 10 minutes at room temperature, after which the fixative was removed and the sample was quenched with the addition of 0.5 mL of freshly-prepared 1 mg/mL NaBH4 in PBS. After a 5 min incubation, the solution was removed by aspiration and the coverslips were washed with PBS.
Coverslips were transferred to parafilm-lined culture dishes (cell-side up), and 40 μL of 50 μg/mL RNase A in Antibody Diluting Solution (AbDil, PBS, pH 7.4, 0.2% TX-100, 2% BSA, 0.1% NaN3) with 1:50 dilution of anti-α-tubulin-FITC antibody was added to all samples. The samples were allowed to incubate at room temperature in the dark for 2.5 hours, after which the coverslips were washed three times with PBS+0.1% TX-100. […]

[16] = IMR90 immortalized lung fibroblasts

Compound	IC50 [1] [µM]	IC50 [2] [µM]	IC50 [3] [µM]	IC50 [4] [µM]	IC50 [5, 16] [µM]	activity (ability to induce cell death) in words [6]	IC50 [7] [µM]	IC50 [8] [µM]	IC50 [9] [µM]	IC50 [10] [µM]	IC50 [11] [µM]	further results
COC1NC(=O)c2ccc(Br)n2C1Cc1c[nH]c(=O)[nH]1 (single isomer, unassigned; (+)) [(+)-53, (+)-O-methyl-pre-agelastatin D]	> 10	> 10	> 10	> 10	> 10	None	–	–	–	–	–	–
CO[C@H]1NC(=O)c2ccc(Br)n2[C@@H]1Cc1c[nH]c(=O)n1C [(+)-39, (+)-O-methyl-pre-agelastatin A]	–	–	–	–	–	None	–	–	–	–	–	IC50 ([1]; Homo sapiens): > 10 µM; IC50 ([2]; Homo sapiens): > 10 µM; IC50 ([3]; Homo sapiens): > 10 µM; IC50 ([4]; Homo sapiens, BT-549): > 10 µM; IC50 ([5]; Homo sapiens, IMR-90, IMR90 immortalized lung fibroblasts): > 10 µM
CN1C(=O)N[C@@]2(O)[C@@H]3NC(=O)c4ccc(Br)n4[C@@H]3C[C@@]12O [(−)-3, (−)-agelastatin C]	> 10	> 10	> 10	> 10	> 10	–	2.1 ± 1.3	5.31 ± 0.35	7.2 ± 2.9	> 10	> 10	activity (ability to induce cell death) in words ([6]; listed as (−)-agelastatin C (3)): little activity at the concentrations examined; also recorded: abolishes activity
O=C1N[C@H]2[C@@H]3NC(=O)c4ccc(Br)n4[C@@H]3C[C@@]2(O)N1 [(−)-4, (−)-agelastatin D]	0.24 ± 0.033	1 ± 0.2	0.92 ± 0.16	0.631 ± 0.082	2.75 ± 0.6	–	0.074 ± 0.025	0.21 ± 0.063	0.202 ± 0.015	0.54 ± 0.12	0.46 ± 0.24	activation of procaspase-3 to active caspase-3 and cleavage of PARP-1 [12]: dose-dependent activation; apoptosis (phosphatidylserine exposure and propidium iodide inclusion) [13]: induced dose-dependent apoptosis; G2/M cell cycle arrest [14]: dose-dependent G2/M cell cycle arrest; effect on tubulin dynamics [15]: do not affect tubulin dynamics; reduction in anticancer potency relative to the compared agelastatin [6]: 1-5 fold
CO[C@@]12C[C@@H]3[C@@H](NC(=O)c4ccc(Br)n43)[C@@H]1NC(=O)N2C [(−)-5, (−)-agelastatin E]	2.56 ± 0.13	8.6 ± 0.81	> 10	6.9 ± 2.5	> 10	relatively weaker activity	0.83 ± 0.37	1.5 ± 0.33	1.41 ± 0.53	4.6 ± 3.6	2.45 ± 0.95	reduction in anticancer potency relative to the compared agelastatin [6]: > 10 fold
O=C1N[C@H]2[C@@H]3NC(=O)c4cc(Br)c(Br)n4[C@@H]3C[C@@]2(O)N1 [(−)-6, (−)-agelastatin F]	> 10	> 10	> 10	> 10	> 10	little activity at the concentrations examined	> 10	> 10	> 10	> 10	> 10	–
(−)-O-methyl-di-epi-agelastatin A [(−)-50]	> 10	> 10	> 10	> 10	> 10	None	–	–	–	–	–	–
(−)-agelastatin B [(−)-2]	1.06 ± 0.16	4.8 ± 1.2	> 10	4.8 ± 1.1	> 10	relatively weaker activity	0.29 ± 0.2	0.75 ± 0.44	0.46 ± 0.28	2.4 ± 1	1.07 ± 0.42	–
(−)-dehydroagelastatin A [(−)-51]	> 10	> 10	> 10	> 10	> 10	None	–	–	–	–	–	–
(−)-di-epi-agelastatin C [(−)-52]	> 10	> 10	> 10	> 10	> 10	None	–	–	–	–	–	–
